Among the data in PMC8689653 (ACS Catalysis, 2021) are Km values, retold here.

The experiment has as its system Lp-NOX. The experiment is described as follows: NADH oxidation, absorbance at […] nm, Michaelis-Menten fit. In kind it is biochemical, Lactiplantibacillus pentosus. The conditions noted are these: free enzyme; 0.2 mM NADH, 0.025-0.2 mM flavin, 25 mM phosphate pH 7, 30 °C.

Turning to `Cc1cc2nc3c(=O)[nH]c(=O)nc-3n(C[C@H](O)[C@H](O)[C@H](O)COP(=O)(O)OP(=O)(O)OC[C@H]3O[C@@H](n4cnc5c(N)ncnc54)[C@H](O)[C@@H]3O)c2cc1C` [FAD], the Km (as a rule, the concentration of substrate that gives half-maximal velocity) stood at 41 ± 20 µM.

For `Cc1cc2nc3c(=O)[nH]c(=O)nc-3n(C[C@H](O)[C@H](O)[C@H](O)COP(=O)(O)O)c2cc1C` [FMN], the Km was determined as 215 ± 100 µM.
